Measured values from ChEMBL document CHEMBL5727622, “Heterocyclic compounds used as FGFR inhibitors” (2020).

Columns and labels:
[1] = molecular target: Fibroblast growth factor receptor 1 (Homo sapiens, UniProt P11362); assay: Inhibition Assay: FGFR1: The in vitro activity of FGFR1 was determined by assaying the phosphorylation level of the substrate in the kinase reaction, by means of an HTRF kinase assay kit. The reaction buffer comprised the following components: 5-fold diluted Enzymatic buffer/kinase 5× (main ingredient: 50 mM HEPES, pH 7.0), 5 mM MgCl2, 1 mM DTT; the human recombinant FGFR1 catalytic structural domain protein (amino acids 308-731) was purified by the company itself, diluted with the reaction buffer to a 0.6 ng/μL kinase solution; the substrate reaction solution comprised a biotin labeled tyrosine kinase substrate diluted with the reaction buffer to 400 nM , and 40 μM ATP, and the assay solution comprised an Eu3+ labeled cage-shaped antibody diluted with the assay buffer to 0.125 ng/μL, and 25 nM streptavidin labeled XL665.
Chain of Fibroblast growth factor receptor 1 (P11362 whole entry, the tested form may be a part): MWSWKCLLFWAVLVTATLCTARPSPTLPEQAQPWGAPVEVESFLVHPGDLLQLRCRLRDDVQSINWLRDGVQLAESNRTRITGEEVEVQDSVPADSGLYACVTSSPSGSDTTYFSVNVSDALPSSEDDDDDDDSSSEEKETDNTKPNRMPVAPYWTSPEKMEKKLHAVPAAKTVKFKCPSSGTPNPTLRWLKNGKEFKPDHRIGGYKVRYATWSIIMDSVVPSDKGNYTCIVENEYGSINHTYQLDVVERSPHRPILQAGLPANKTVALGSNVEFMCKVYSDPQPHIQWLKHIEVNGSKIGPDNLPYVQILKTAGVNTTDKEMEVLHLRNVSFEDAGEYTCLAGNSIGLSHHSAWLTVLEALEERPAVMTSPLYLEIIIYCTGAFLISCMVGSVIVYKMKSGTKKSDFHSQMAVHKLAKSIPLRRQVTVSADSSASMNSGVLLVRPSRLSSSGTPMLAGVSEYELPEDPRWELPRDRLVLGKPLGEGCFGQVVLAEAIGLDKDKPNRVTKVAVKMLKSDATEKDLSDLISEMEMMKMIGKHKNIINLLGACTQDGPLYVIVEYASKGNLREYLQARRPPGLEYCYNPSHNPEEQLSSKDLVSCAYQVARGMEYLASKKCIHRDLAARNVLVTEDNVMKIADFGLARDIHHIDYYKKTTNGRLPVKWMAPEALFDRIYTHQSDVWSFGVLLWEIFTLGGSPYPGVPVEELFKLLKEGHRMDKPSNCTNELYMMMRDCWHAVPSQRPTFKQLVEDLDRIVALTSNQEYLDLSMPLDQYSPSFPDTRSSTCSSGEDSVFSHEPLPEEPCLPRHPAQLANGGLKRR

[2] = molecular target: Fibroblast growth factor receptor 3 (Homo sapiens, UniProt P22607); assay: Inhibition Assay: FGFR3: The in vitro activity of FGFR3 was determined by assaying the phosphorylation level of the substrate in the kinase reaction, by means of an HTRF kinase assay kit. The reaction buffer comprised the following components: 5-fold diluted Enzymatic buffer/kinase 5×(main ingredient: 50 mM HEPES, pH 7.0), 5 mM MgCl2, 1 mM DTT; the human recombinant FGFR3 catalytic structural domain protein (amino acids 399-806), diluted with the reaction buffer to a 0.3 ng/μL kinase solution; the substrate reaction solution comprised a biotin labeled tyrosine kinase substrate diluted with the reaction buffer to 1000 nM, and 90 μM ATP, and the assay solution comprised an Eu3+ labeled cage-shaped antibody diluted with the assay buffer to 0.125 ng/μL, and 62.5 nM streptavidin labeled XL665.
Chain of Fibroblast growth factor receptor 3 (P22607 whole entry, the tested form may be a part): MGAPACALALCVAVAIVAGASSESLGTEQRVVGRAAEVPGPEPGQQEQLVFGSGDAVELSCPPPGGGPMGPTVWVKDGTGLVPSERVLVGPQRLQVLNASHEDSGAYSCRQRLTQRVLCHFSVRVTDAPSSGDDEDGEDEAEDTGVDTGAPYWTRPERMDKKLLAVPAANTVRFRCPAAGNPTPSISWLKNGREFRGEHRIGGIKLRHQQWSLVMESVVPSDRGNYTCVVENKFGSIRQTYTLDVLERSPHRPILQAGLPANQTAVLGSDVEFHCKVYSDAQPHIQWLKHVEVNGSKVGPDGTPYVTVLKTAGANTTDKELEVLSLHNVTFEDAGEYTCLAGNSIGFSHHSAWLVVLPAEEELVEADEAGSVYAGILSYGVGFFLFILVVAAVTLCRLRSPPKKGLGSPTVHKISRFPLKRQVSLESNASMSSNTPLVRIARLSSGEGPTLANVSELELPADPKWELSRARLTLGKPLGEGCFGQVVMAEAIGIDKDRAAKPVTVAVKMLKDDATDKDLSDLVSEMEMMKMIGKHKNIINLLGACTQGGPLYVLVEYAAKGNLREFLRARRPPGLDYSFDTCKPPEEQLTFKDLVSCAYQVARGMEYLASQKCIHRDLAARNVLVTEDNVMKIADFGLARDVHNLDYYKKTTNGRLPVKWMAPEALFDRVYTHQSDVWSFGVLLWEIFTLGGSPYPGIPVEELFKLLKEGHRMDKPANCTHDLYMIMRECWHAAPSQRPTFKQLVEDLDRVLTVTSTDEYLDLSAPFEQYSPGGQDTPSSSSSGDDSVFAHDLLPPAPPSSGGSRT

[3] = molecular target: Fibroblast growth factor receptor 2 (Homo sapiens, UniProt P21802); assay: Inhibition Assay: FGFR2: The in vitro activity of FGFR2 was determined by assaying the phosphorylation level of the substrate in the kinase reaction, by means of an HTRF kinase assay kit. The reaction buffer comprised the following components: 5-fold diluted Enzymatic buffer/kinase 5× (main ingredient: 50 mM HEPES, pH 7.0), 5 mM MgCl2, 1 mM DTT; the human recombinant FGFR2 catalytic structural domain protein (amino acids 400-821) was commercially available from Beijing Sino Biological Inc., diluted with the reaction buffer to a 0.045 ng/μL kinase solution; the substrate reaction solution comprised a biotin labeled tyrosine kinase substrate diluted with the reaction buffer to 800 nM, and 50 μM ATP, and the assay solution comprised an Eu3+ labeled cage-shaped antibody (Cisbio, Catalog number 61T66KLB) diluted with the assay buffer (Cisbio, Catalog number 62SDBRDF) to 0.125 ng/μL, and 50 nM streptavidin labeled XL665.
Chain of Fibroblast growth factor receptor 2 (P21802 whole entry, the tested form may be a part): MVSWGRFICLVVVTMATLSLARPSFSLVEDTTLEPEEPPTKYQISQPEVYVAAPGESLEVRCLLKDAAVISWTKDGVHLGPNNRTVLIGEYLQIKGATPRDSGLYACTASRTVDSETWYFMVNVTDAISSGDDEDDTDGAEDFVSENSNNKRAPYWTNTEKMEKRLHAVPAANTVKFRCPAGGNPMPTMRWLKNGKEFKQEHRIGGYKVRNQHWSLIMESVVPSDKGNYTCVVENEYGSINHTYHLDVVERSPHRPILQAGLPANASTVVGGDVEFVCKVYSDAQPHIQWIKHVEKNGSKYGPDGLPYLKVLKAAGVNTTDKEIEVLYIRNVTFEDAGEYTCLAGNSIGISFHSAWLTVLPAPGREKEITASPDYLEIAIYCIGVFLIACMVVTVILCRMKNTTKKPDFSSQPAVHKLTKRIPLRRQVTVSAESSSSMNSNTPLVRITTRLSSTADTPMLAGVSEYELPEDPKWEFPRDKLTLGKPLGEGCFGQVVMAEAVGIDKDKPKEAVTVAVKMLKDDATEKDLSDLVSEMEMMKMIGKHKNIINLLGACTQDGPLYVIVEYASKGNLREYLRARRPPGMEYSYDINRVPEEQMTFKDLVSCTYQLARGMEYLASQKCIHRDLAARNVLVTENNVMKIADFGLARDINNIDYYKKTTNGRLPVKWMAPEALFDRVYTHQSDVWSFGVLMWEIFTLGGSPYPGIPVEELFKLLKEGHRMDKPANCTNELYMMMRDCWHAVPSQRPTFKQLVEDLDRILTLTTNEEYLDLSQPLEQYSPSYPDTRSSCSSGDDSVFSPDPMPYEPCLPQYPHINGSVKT

[4] = molecular target: Fibroblast growth factor receptor 4 (Homo sapiens, UniProt P22455); assay: Inhibition Assay: FGFR4:The in vitro activity of FGFR4 was determined by assaying the phosphorylation level of the substrate in the kinase reaction, by means of an HTRF kinase assay kit. The reaction buffer comprised the following components: 5-fold diluted Enzymatic buffer/kinase 5×(main ingredient: 50 mM HEPES, pH 7.0), 5 mM MgCl2, 1 mM DTT; the human recombinant FGFR4 catalytic structural domain protein (amino acids 460-802), diluted with the reaction buffer to a 0.5 ng/μL kinase solution; the substrate reaction solution comprised a biotin labeled tyrosine kinase substrate diluted with the reaction buffer to 500 nM , and 90 μM ATP, and the assay solution comprised an Eu3+ labeled cage-shaped antibody diluted with the assay buffer to 0.125 ng/μL, and 31.25 nM streptavidin labeled XL665).
Chain of Fibroblast growth factor receptor 4 (P22455 whole entry, the tested form may be a part): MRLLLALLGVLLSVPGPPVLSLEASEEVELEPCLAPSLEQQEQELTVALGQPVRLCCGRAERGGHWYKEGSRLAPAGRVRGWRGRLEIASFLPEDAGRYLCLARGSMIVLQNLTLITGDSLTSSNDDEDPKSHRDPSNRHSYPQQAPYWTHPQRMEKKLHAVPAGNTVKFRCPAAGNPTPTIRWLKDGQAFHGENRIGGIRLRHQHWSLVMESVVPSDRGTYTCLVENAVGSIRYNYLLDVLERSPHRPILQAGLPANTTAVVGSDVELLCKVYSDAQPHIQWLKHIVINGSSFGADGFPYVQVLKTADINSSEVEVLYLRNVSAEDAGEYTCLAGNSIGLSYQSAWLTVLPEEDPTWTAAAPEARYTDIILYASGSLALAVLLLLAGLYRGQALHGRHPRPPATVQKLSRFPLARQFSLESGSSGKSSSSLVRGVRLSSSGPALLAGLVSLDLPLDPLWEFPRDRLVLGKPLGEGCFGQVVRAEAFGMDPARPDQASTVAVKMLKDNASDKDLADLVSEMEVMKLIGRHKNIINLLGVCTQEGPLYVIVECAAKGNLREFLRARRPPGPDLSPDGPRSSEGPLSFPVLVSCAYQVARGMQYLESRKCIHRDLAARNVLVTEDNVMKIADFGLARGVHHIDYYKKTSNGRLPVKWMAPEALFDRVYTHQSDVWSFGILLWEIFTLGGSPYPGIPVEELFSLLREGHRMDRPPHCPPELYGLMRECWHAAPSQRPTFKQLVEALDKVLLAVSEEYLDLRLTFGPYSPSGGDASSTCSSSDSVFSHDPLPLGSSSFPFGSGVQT

| SMILES | IC50 [1] [nM] | IC50 [2] [nM] | IC50 [3] [nM] | IC50 [4] [nM] |
| --- | --- | --- | --- | --- |
| CC(C)Oc1cc(NC(=O)N(C)c2ccc(CN3CCN(C)CC3=O)c(C=O)n2)ncc1C#N | > 1000 | > 1000 | > 1000 | < 10 |
| COC[C@H](C)Oc1cc(NC(=O)N(C)c2ccc(CN3CCN(C)CC3=O)c(C=O)n2)ncc1C#N | > 1000 | > 1000 | > 1000 | < 10 |
| COCCNc1cc(NC(=O)N(C)c2ccc(CN3CCOCC3=O)c(C=O)n2)ncc1C#N | > 1000 | > 1000 | > 1000 | < 10 |
| COCCOc1cc(NC(=O)N(C)c2ccc(CN3CCOCC3=O)c(C=O)n2)ncc1C#N | > 1000 | > 1000 | > 1000 | < 10 |
| CC(C)Nc1cc(NC(=O)N(C)c2ccc(CN3CCOCC3=O)c(C=O)n2)ncc1C#N | > 1000 | > 1000 | > 1000 | < 10 |
| COC[C@@H](C)Oc1cc(NC(=O)N(C)c2ccc(CN3CCN(C)CC3=O)c(C=O)n2)ncc1C#N | > 1000 | > 1000 | > 1000 | < 10 |
| C[C@@H](CO)Oc1cc(NC(=O)N(C)c2ccc(CN3CCN(C)CC3=O)c(C=O)n2)ncc1C#N | > 1000 | > 1000 | > 1000 | < 10 |
| CN1CCN(Cc2ccc(N(C)C(=O)Nc3cc(Cl)c(C#N)cn3)nc2C=O)C(=O)C1 | > 1000 | > 1000 | > 1000 | – |
| CC(C)Nc1cc(NC(=O)N(C)c2ccc(CN3CCN(C)CC3=O)c(C=O)n2)ncc1C#N | > 1000 | > 1000 | > 1000 | < 10 |
